Common to all, as to assay type: in vivo, rat
The test system of assay [1] is angiotensin II infused rats. As to the kind of experiment: Assay A angiotensin II infusion model: systolic blood pressure by tail-cuff. To be noted: Wistar rats, 1% NaCl, angiotensin II 25 ng/min sc; eplerenone 100 mpk; 4 weeks. The procedure: Assay A: In Vivo Angiotensin II Infusion Model
Male Wistar rats (n—50, 10/group; BW=200 g)
2. Angiotensin 11 (25 ng/min, sc via aizet minipump)
SBP measured by tail-cuff every week

For assay [2], the system named is osteopontin. As to the kind of experiment: Assay B aldosterone infusion model: osteopontin immunohistochemistry of hearts. As to conditions: aldosterone infused rats; eplerenone 100 mpk p.o. As to the method: Assay B: In vivo Aldosterone Infusion Model Male Sprague Dawley rats (n=39; BW=250 g) […] Uni-nephrectomy performed during implantation of mini-pumps 2. Aldosterone ([…], sc via aizet minipump) 2. […] 1. […] Sacrifice after 4 weeks. Determination of osteopontin and COX-2 was performed by quantitative RT-PCR (Taqman). Osteopontin was also identified in the heart by immunohistochemistry.

Assay [3] deals with aldosterone + salt treated rats. Nature of the assay: Assay C: myocardial histopathology, semi-quantitative injury score 0 to 4. As to conditions: for Myocardial Necrosis (0-4), Mean: group mean. The procedure:
The procedure of Assay B was expanded upon in a further study. […] Myocardial tissue from animals in each treatment group was examined after 7, 14, or 30 days of treatment. […] Lesions were preceded by the expression and progressive upregulation of proinflammatory molecules. […] Prior to surgery the animals were individually weighed and placed in one of the following groups: […] Potassium chloride supplementation was added to the saline solution in order to prevent the potential hypokalemia associated with aldosterone excess. […] Louis, Mo.) was inserted subcutaneously at the nape of the neck. Aldosterone was administered at a dose of […]. […] Animals were sacrificed from each group (n=8-13) after 7, 14, or 30 days of treatment. Following exsanguination, hearts and kidneys were isolated, removed, rinsed in cold phosphate-buffered saline, and blotted dry. […] The equatorial regions of the heart were routinely processed into paraffin with an automated tissue processor (Hypercenter XP, Shandon/Lipshaw Inc., Pittsburgh, Pa.) and embedded into fresh paraffin apical side down (Shandon Embedding Center, Shandon/Lipshaw Inc.). […] Ten m sections were stained with the collagen specific stain, Picrosirius Red F3BA (Saturated Picric Acid (Sigma Chemical, St. […] Waterbury, Conn.) (6). Mounted tissues were hydrated with water. […] Slides were coverslipped with #1 cover glass using Permount Histological Mounting Media (Fisher Scientific). Two slides mounted with 5 m sections were cut for each animal. One slide was processed for H&E staining and one for Periodic Acid Schiff (PAS) staining. The H&E and PAS were used for pathological scoring of the hearts. Semi-quantification of myocardial injury was performed as described previously with minor modifications (7). Briefly, a scale from 0 to 4 was used to score the level of myocardial injury. A score of 0 represented no damage. […] Myocardial necrosis was defined as the presence of necrotic changes in cardiomyocytes such as nuclear pyknosis or karyolysis, non-contracting marginal wavy fibers and hypereosinophilia of the cytoplasm, or clear evidence of destruction of the cardiomyocyte membrane.

The subject of assay [4] is Transforming growth factor beta 1. Nature of the assay: Assay C: TGF beta 1 mRNA in left ventricle (TaqMan). To be noted: for TGF-β, Mean: group mean; for TGF-β: individual rats. The procedure:
The procedure of Assay B was expanded upon in a further study. […] Myocardial tissue from animals in each treatment group was examined after 7, 14, or 30 days of treatment.
Potassium chloride supplementation was added to the saline solution in order to prevent the potential hypokalemia associated with aldosterone excess.
At the time of the surgery, an Alzet 2002 osmotic minipump (Alza Corp., Palo Alto, Calif.) containing either vehicle (9% ethanol/87% propylene glycol/4% dH2O) or 1.0 mg/mL d-aldosterone (Sigma Chemical, St. Louis, Mo.) was inserted subcutaneously at the nape of the neck. Aldosterone was administered at a dose of 0.75 g/hour. […] Animals were sacrificed from each group (n=8-13) after 7, 14, or 30 days of treatment.
Following exsanguination, hearts and kidneys were isolated, removed, rinsed in cold phosphate-buffered saline, and blotted dry. Kidneys were immediately bifurcated through the long axis with a razor blade and placed in 10% neutral buffered formalin (NBF, Richard-Allen Scientific, Kalamazoo, Mich.). For the hearts, the right ventricle (RV) was cut away from the left ventricle (LV), both ventricles were weighed using a Mettler AE163 balance (Mettler-Toledo, Inc., Hightstown, N.J.), and the RV was placed in 10% NBF. A 2 mm coronal slab of the LV apex was removed and frozen with dry ice/isopentane for analysis of gene expression and the remaining portion of the LV was placed in 10% NBF for fixation. Final wet trimming was completed after 3-4 days fixation where a second 2 mm coronal slab was removed for hydroxyproline analysis and a third 2 mm slab was removed from the equatorial region for histology.
The fluorogenic 5′-nuclease assay (TaqMan PCR) using Applied Biosystems' 7700 Sequence Detection System (Applied Biosystems, Foster City, Calif.) allowed for real time detection/quantitation of a specific gene by monitoring the increase in fluorescence of a gene-specific, dye-labeled oligonucleotide probe. Probes for target and reference genes were labeled at the 5′-end with a 6-carboxyfluorescein (6FAM) reporter dye and at the 3′-end with a 6-carboxy-N,N,N′,N′-tetramethylrhodamine (TAMRA) quencher dye. When the probe was annealed to the target gene, fluorescence of 6FAM was prevented by the close proximity of TAMRA. The exonuclease activity of Taq polymerase released the dyes from the oligonucleotide probe by displacing the probe from the target sequence resulting in fluorescence excitation in direct proportion to the amount of target message present. Data analysis was performed using the Sequence Detection System software from Applied Biosystems.
Primers and probes were designed using Oligo Primer Analysis Software, Version 5.0 (National Biosciences Inc. (NBI)-Wojciech Rychlik, Cascade, Colo.). Primers were synthesized by Life Technologies (Grand Island, N.Y.) and probes were synthesized by Applied Biosystems. Primer/probe sets were designed from known sequences of rat genes to be analyzed. All target gene values were normalized to a reference gene, constitutively expressed cyclophilin. Primer/probe sets sequences can be found in Table 8
RNA was extracted from frozen (−70° C.) left ventricle (LV) tissue (approximately 10-20 mg) using 1.5 mL RNA-STAT 60 according to manufacturer's instructions (Leedo Medical Laboratories, Inc., Houston, Tex.). Briefly, tissues were homogenized using a tissue homogenizer equipped with a 5 mm probe (Ultra-Turrax T8 Homogenizer, IKA Works, Inc. Wilmington, N.C.). Following homogenization, an equal volume of molecular grade chloroform (Sigma Chemical Co., St. Louis, Mo.) was incubated with periodic mixing for 10 min at room temperature. Samples were centrifuged at 12,000 g for 10 min and RNA was precipitated from the top layer by adding an equal volume of molecular grade isopropanol (Sigma Chemical Co.) followed by an overnight incubation at −80° C.
On the technique in general: Quantitative PCR measures a nucleic acid by following its amplification.

SMILES strings stand for the structures. Values joined by “and” are separate entries in the source; they are usually repeats but may differ in a detail not shown here. Equal values may be shown once. “Also recorded” adds a separate entry of the source.

As for `COC(=O)[C@@H]1CC2=CC(=O)CC[C@]2(C)[C@@]23O[C@@H]2C[C@@]2(C)[C@@H](CC[C@@]24CCC(=O)O4)[C@H]13` [eplerenone, Pregn-4-ene-7,21-dicarboxylic acid, 9,11-epoxy-17-hydroxy-3-oxo-, γ-lactone, methyl ester, (7α, 11α, 17β) -], in assay [1], the Systolic Blood Pressure entry is reported as “Neither eplerenone nor adrenalectomy reduced blood pressure”. For the same compound, the “Osteopontin expression in the heart (immunostaining)” value in assay [2] is on record as “prevention by eplerenone of induction of osteopontin expression; also recorded: prevented the expression of osteopontin”. Also, in assay [3] (7, 14, 30 days, eplerenone 100 mg/kg/day), the “Myocardial injury (vascular and myocardial damage, histopathology)” value was “markedly attenuated myocardial injury at all time points; also recorded: markedly attenuated this initial vascular inflammatory response and subsequent myocardial injury”. Also, the “Myocardial Necrosis (0-4), Mean” value in assay [3] (14 days of treatment) turned out to be 0.5; in assay [3] (30 days of treatment) it was 0.0. Further, the “Myocardial Necrosis (0-4)” value in assay [3] (individual rats, 14 days of treatment, eplerenone 100 mg/kg/day, listed as Eplerenone + aldosterone + salt) came to 0.0; in assay [3] (mean ± SEM after 30 days of treatment, eplerenone 100 mg/kg/day), 0.0 ± 0.0. In addition, the results for the “TGF-β, Mean” value in assay [4] (7 days of treatment), in assay [4] (14 days of treatment) and in assay [4] (30 days of treatment) were 0.99 AU, 1.26 AU and 1.32 AU, respectively. Also, the TGF-β was 0.80 AU (2×) and 0.81 AU and 0.51 AU and 0.61 AU and 0.84 AU in assay [4] (7 days of treatment, listed as Eplerenone + aldosterone + salt); 0.58 AU and 0.62 AU and 1.04 AU and 0.71 AU and 1.21 AU and 2.41 AU in assay [4] (14 days of treatment, listed as Eplerenone + aldosterone + salt); 1.00 AU and 1.40 AU and 0.96 AU and 1.93 AU and 0.89 AU in assay [4] (30 days of treatment, listed as Eplerenone + aldosterone + salt).
As to `C[C@]12CCC(=O)C=C1CC[C@@H]1[C@@H]2[C@@H](O)C[C@]2(C=O)[C@@H](C(=O)CO)CC[C@@H]12` [aldosterone], the Systolic Blood Pressure entry in assay [1] is “increased blood pressure”. Moreover, the “Osteopontin expression in the heart (immunostaining)” value in assay [2] is given as “osteopontin was clearly identified in the media of coronary arteries”. For the same compound, the “Myocardial Necrosis (0-4)” value came to 0.0 in assay [3] (Table 9.14, 7-day protocol, score 0-4, group Mean); 0.0 in assay [3] (Table 9.14, 7-day protocol, score 0-4, individual rats); 0.0 ± 0.0 in assay [3] (mean ± SEM after 7 days of treatment, eplerenone 100 mg/kg/day). The “Myocardial Necrosis (0-4), Mean” value in assay [3] (14 days of treatment) turned out to be 0.8; in assay [3] (30 days of treatment), 2.0. For the same compound, the “TGF-β, Mean” value in assay [4] (30 days of treatment) was found to be 1.33 AU. Further, the TGF-β in assay [4] (7 days of treatment, listed as Aldosterone + salt) is 0.98 AU and 1.47 AU and 1.21 AU; in assay [4] (14 days of treatment, listed as Aldosterone + salt), 0.55 AU and 1.27 AU and 0.56 AU; in assay [4] (30 days of treatment, listed as Aldosterone + salt), 1.27 AU and 1.20 AU and 0.83 AU and 0.54 AU.

The record behind these values is US20030162759A1, “Aldosterone blocker therapy to prevent or treat inflammation-related disorders” (priority 2000, published 2003).
